Active and inactive are the calls of the source.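 Rule for the calls: active = compounds giving half or more protection of infected cells from virus-caused growth loss, again on retest; inactive = the rest.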 Where a SMILES comes first, the peptide text is derived from it. The star is where a group is joined. Cbz = O=C(OCc1ccccc1)*
Test system: CEM cells HIV-1 protection, formazan growth assay
Assay: NCI AIDS Antiviral Assay
Details: for IC50: measured here: growth of uninfected CEM cells
Procedure, shortened: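 Human CEM cells, uninfected and HIV-1-infected, exposed to five drug concentrations; growth measured by soluble formazan assay and scored as percent protection from infection, with protecting compounds retested.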

Structure (SMILES) | EC50 [µM] | IC50 [µM] | outcome
Nc1ncnc2c1sc1nc3ccccc3n12 | > 200 | > 200 | 
N#CCCN(C1=NN(C(=O)CC(=O)Nc2cccc(Cl)c2)C(c2ccccc2)C1)c1ccccc1Cl (centres undefined) | > 69.2 | > 69.2 | 
Nc1cccc(Nc2nc3ccccc3nc2NS(=O)(=O)c2ccccc2)c1 | > 200 | 51.3 | 
N/C(=C\c1ccc(/C=C(\NC(=O)c2ccccc2)c2nc3c([nH]2)C(=O)c2ccccc2C3=O)cc1)c1nc2c([nH]1)C(=O)c1ccccc1C2=O |  |  | inactive
CCOC(=O)CCC(NC(=O)CNC(=O)CNC(=O)C(CCC(=O)OCC)NC(=O)C(CCC(=O)OCC)NC(=O)C(CCC(=O)OCC)NC(=O)OCc1ccccc1)C(=O)NC(CCC(=O)OCC)C(=O)NC(CCC(=O)OCC)C(=O)OCC (centres undefined) (Cbz-E(OEt)E(OEt)E(OEt)GGE(OEt)E(OEt)E(OEt)-OEt; configuration not given here) | > 200 | > 200 | 
N#CC1=C(N)OC(c2cccc([N+](=O)[O-])c2)C1(C#N)C#N (centres undefined) | > 200 | 15.5 | 
CCN1C[C@]2(COC)CCC(=O)C34[C@@H]5C[C@@H]6C(O)[C@@H]5[C@](O)(C[C@@H]6OC)[C@@H](C(OC)[C@@H]32)[C@H]14 (some centres undefined) |  |  | inactive
COC(Cc1ccccc1)NC(=O)[C@@]12CCCC[C@@H]1C=Cc1ccccc12 (some centres undefined) | > 55 | 22.9 | 
C=CC(=O)N1C/C(=C\c2ccc(Cl)c(Cl)c2)C(=O)/C(=C/c2ccc(Cl)c(Cl)c2)C1 | > 5.89 | 0.0372 | 
Cc1ccc(C(CCO)CCO)nc1 | > 200 | > 200 | 
c1ccc2c(c1)cc1n2CCc2c-1[nH]c1ccccc21 | > 200 | > 200 | 
N#Cc1c(N)sc(=S)c2c1CCCC2 | > 22.4 | > 22.4 | 
Cc1ccc2c(c1CCCC(C)(C)O)C(=O)C(=O)C(C(C)C)=C2O | > 380 | 132 | 
O=C(O)/C(Cl)=C(\Cl)C(=O)Nc1ccc(Cl)cc1Cl |  |  | inactive
CCOC(=O)c1ccc(NC(=O)Nc2ncccc2C)cc1 | > 200 | > 200 | 
COC(=O)[C@]1(c2ccc(N(C)C)cc2OC)C[C@@H]2CCCN(CCc3c1[nH]c1ccccc31)C2 |  |  | inactive
CCOC(=O)c1c(NCc2ccccc2)n(-c2ccccc2)c(=S)n(-c2ccccc2)c1=O | > 40.7 | 30.2 | 
On1ccc(=S)c2ccccc21 | > 200 | 36.3 | 
O=[N+]([O-])c1ncnc2c1ncn2C1OC(CO)CC1F (centres undefined) | > 89.1 | 28.2 | 
C=C1C(O)C2(O)OCC34C(CC5C(C)=CC(=O)C(O)C5(C)C23)OC(=O)C(OC(=O)C/C=C(\C)CCCCC)C14 (centres undefined) | > 47.9 | 0.0151 | 
CC(C)c1ccc(C2C3=C(N=C4SCC(=O)N42)C(=O)c2ccccc23)cc1 (centres undefined) | > 13.8 | > 13.8 | 

Structure (SMILES) | EC50 [µM] | IC50 [µM] | outcome
COc1cccc(C2c3cc4c(cc3OC(NNc3ccccc3)C2C)OCO4)c1O (centres undefined) | > 200 | 11.2 | 
O=C(Nc1ncnc2c1ncn2C1OC(CO)CC1F)c1ccccc1 (centres undefined) |  |  | inactive
Cc1ccc(S(=O)(=O)OCCC2CN(C(=O)OCc3ccccc3)C(C)(C)O2)cc1 (centres undefined) | > 200 | 14.1 | 
CN(C)CCSc1nccc(-c2cc3ccccc3s2)n1 | > 417 | 11.5 | 
CCCCCCCCCCCCCCCC/C(C(=O)OC)=C(/O)C(=O)OCC | > 8.51 | > 8.51 | 
O=C1Sc2ccccc2C(=O)N2CCCC12 (centres undefined) | > 200 | > 200 | 
CCOP(=O)(OCC)OP(=O)(OCC)OCC | > 871 | > 871 | 
O=C1/C(=C/c2ccc(O)cc2)NC(=S)N1CN1CCCCC1 | > 200 | 32.4 | 
C=CCN(CC=C)C(=O)Nc1ccc(C(=O)N/N=C/c2cccc(OC)c2OC)cc1 | 89.1 | 170 | 
CC1(c2ccccc2)N=C(C(N)=O)c2[nH]cnc2N1 (centres undefined) | > 200 | > 200 | 
CCC1CCC2c3c([nH]c4ccc(C)cc34)C3C(=O)N(N(C)C)C(=O)C3C2C1 (centres undefined) | > 200 | > 100 | 
COc1ccc(/C=C/c2onc3c(=O)n(C)nc(-c4ccccc4)c23)cc1 | > 20 | > 20 | 
COC(=O)/C=C/C(=O)CC(O)COC(=O)c1ccccc1 (centres undefined) | > 85.1 | 2.09 | 
OC(CN(Cc1nc2ccccc2[nH]1)Cc1nc2ccccc2[nH]1)CN(Cc1nc2ccccc2[nH]1)Cc1nc2ccccc2[nH]1 | > 200 | 2.51 | 
CNC(=S)Nc1ccc(OC)c2ccccc12 | > 200 | > 200 | 
CCn1c(SCC(=O)NNC(=S)NC)nc2ccccc2c1=O | > 200 | > 200 | 
CCOc1cccc2cccnc12 | > 200 | > 200 | 
CCOC(=O)C1=CC(C)(C(=O)OCC)Nc2c(nc(OC)[nH]c2=O)N1 (centres undefined) | > 200 | > 200 | 
COc1ccc(-c2oc3cc(OC)c(OC)c(O)c3c(=O)c2O)cc1O | > 200 | 1.05 | 
COc1ccc(C2S/C(=C\c3cccc([N+](=O)[O-])c3)C(=O)N2NC(=O)Cc2ccccc2)cc1 (centres undefined) | > 39.8 | > 39.8 | 
COc1ccc(N2C(=O)c3c4c(c5c([nH]c6ncccc65)c3C2=O)CCC(C(C)(C)C)C4)cc1 (centres undefined) | 191 | > 200 | 

Structure (SMILES) | EC50 [µM] | IC50 [µM] | outcome
O=C(Cc1nccc2c1[nH]c1ccccc12)OC1C#CCSCC#C/C=C\1 (centres undefined) | > 200 | 28.2 | 
COc1ccc(C(=O)C2CC3(CCC2(O)c2ccc(OC)cc2)CC(=O)Nc2ccccc2C3=O)cc1 (centres undefined) | > 200 | 72.4 | 
COC1(OC)CC2CCCCC2=C(C)N1S(=O)(=O)c1ccccc1 (centres undefined) |  |  | inactive
CCOC(=O)C(=CNC(=S)N=Nc1c(O)[nH]c2ccccc12)C(=O)OCC | > 200 | 70.8 | 
c1ccc(N=C(Nc2ccccc2)N2CCCCC2)cc1 | > 200 | 77.6 | 
FC(F)(F)c1cccc(C=NC23CC4CC(CC(C4)C2)C3)c1 | > 17 | > 17 | 
CC(C)(C)OC(=O)N(CCCCNCc1ccc2ccccc2c1)CCCNCc1ccc2ccccc2c1 | > 2 | 1.05 | 
Cn1c(=O)c2c(ncn2CCNC(CO)C(O)c2ccc([N+](=O)[O-])cc2)n(C)c1=O (centres undefined) | > 200 | > 200 | 
Oc1ccccc1C=NCCSSCCN=Cc1ccccc1O |  |  | inactive
CC(C)=CCC[C@@H](C)C1=C(O)C(Nc2ccccc2I)=C(C)C(=O)C1=O | > 200 | 6.76 | 
CC1=NNC(=O)C12CC2 |  |  | inactive
CCN(CC)CCCNC(=O)c1ccccc1Nc1c(Cl)cccc1Cl | > 200 | 6.76 | 
Cc1nc(Nc2ccc(Cl)cc2)sc1C(=O)Nc1cccc2c(=O)[nH][nH]c(=O)c12 | > 17 | > 17 | 
CCOC(=O)c1cn(C)c2c1C(=O)C(C(=O)OCC)CCN2C(=O)OCC (centres undefined) | > 240 | > 240 | 
O=C1CCCCCCCCCCC1CN1CCCC1 (centres undefined) |  |  | inactive
COc1ccc(-c2oc3c(Cl)cc(Cl)cc3c(=O)c2O)cc1OC | > 200 | > 200 | 
O=C(N/C(=C\c1ccc(/C=C(\NC(=O)c2ccccc2)c2nc3cc(Cl)ccc3[nH]2)cc1)c1nc2cc(Cl)ccc2[nH]1)c1ccccc1 |  |  | inactive
CC(=O)OCC1OC(OCCCOP(=S)(OCCC#N)OCC2OC(n3ccc(N)nc3=O)C(OC(=O)c3ccccc3)C2OC(=O)c2ccccc2)C(OC(C)=O)C(OC(C)=O)C1OC(C)=O (centres undefined) | > 100 | > 100 | 
Cc1cc(N=Nc2ccc(NC(=O)c3ccc(N)cc3)cc2C)ccc1N=Nc1ccc2c(O)c(N=Nc3ccc(S(=O)(=O)O)cc3)c(S(=O)(=O)O)cc2c1 | 15.1 | 105 | 
Cc1c2c(c(C)c3c1C(=O)c1cc4c(cc1C3=O)OCO4)OCO2 | > 200 | > 200 | 
CN1Cc2ccccc2S(=O)(=O)n2cccc2C1=O | > 200 | > 200 | 

Structure (SMILES) | EC50 [µM] | IC50 [µM] | outcome
CN(C)C(=O)N(CCC#N)CCN(C(=O)N(C)C)c1ccccc1 | > 200 | > 200 | 
OC1[C@H](O)CN(OCc2ccccc2)C[C@@H]1O (some centres undefined) | > 200 | > 200 | 
COc1cc(C2C(C(=O)Nc3ccc([N+](=O)[O-])cc3)=C(C)NC(C)=C2C(=O)Nc2ccc([N+](=O)[O-])cc2)ccc1O | > 9.33 | > 9.33 | 
NCCSSCCN |  |  | active
CN(C)c1ccc(/C=C(\C#N)c2c(Cl)cccc2Cl)cc1 | > 200 | 4.57 | 
CCCc1cc(=O)oc2c3c(c4c(c12)OC(C)(C)CC4)O[C@H](C)[C@H](C)C3=O | > 30.2 | 13.2 | 
S=C(SSC(=S)N(Cc1ccccc1)Cc1ccccc1)N(Cc1ccccc1)Cc1ccccc1 | > 200 | 15.1 | 
COc1cccc(NC(=O)CSc2nnc(Cc3ccccc3)o2)c1 | > 100 | > 100 | 
CC(=O)OCC1OC(n2c(C)c(C(C)=O)c(-c3ccc(Cl)cc3)c(C#N)c2=S)C(OC(C)=O)C(OC(C)=O)C1OC(C)=O (centres undefined) | > 200 | 148 | 
CN(C)CCn1c2c3ccccc3ccc2c2oc(=O)c3ccccc3c21 | > 18.2 | 8.51 | 
CCc1cccc(C(C)(C)C)c1NC(=S)N/C=C(\c1ccccc1)S(=O)Cc1ccccc1 (centres undefined) | 182 | > 200 | 
O=c1oc(-c2ccccc2)cn1-c1ccccc1 |  |  | inactive
CC1(C)COC(C2Cc3ccccc3C(O)(c3ccccc3)C2)=N1 (centres undefined) | > 200 | > 200 | 
CC(C)=CC(=O)C/C(=N\NC(N)=S)C(=O)Nc1ccc(Cl)cc1 | > 37.2 | > 37.2 | 
COc1ccc2nc3cc(Cl)ccc3c(Sc3ccc([N+](=O)[O-])cc3C)c2c1 | > 12.6 | > 12.6 | 
c1ccc2c(c1)N=C(c1ccc3ccccc3c1)CC(c1cccc3ccccc13)S2 (centres undefined) | > 2.51 | > 2.51 | 
C=CCOC1=C(OCC=C)C(C2COC(C)(C)O2)OC1=O (centres undefined) | > 200 | 70.8 | 
CCN(CCO)CC1COc2ccccc2O1 (centres undefined) | > 200 | > 200 | 
CC(=O)[O-].COc1cccc(/C=N/[N-]C(=O)c2ccncc2)c1.[OH3+].[OH3+].[OH3+].[Zn+2] | > 200 | 3.89 | 
[C-]#[O+].[C-]#[O+].[C-]#[O+].[C-]#[O+].[C-]#[O+].[C-]#[O+].[Fe].[Fe].c1ccc([P-]c2ccccc2[P-]c2ccccc2)cc1 (centres undefined) | > 1.82 | > 1.82 | 

— PubChem BioAssay AID179 (DTP/NCI, 2004)
